*1 amine or outer side, *2 acyl side, *3 side chain or, on linkers, in order; H or OH if unused. Where a SMILES comes first, the peptide text is derived from it. Side-chain parts run from the residue outwards. [ ]: non-standard residue; d: D form. The star is where a group is joined. Lys(Me3) = C[N+](C)(C)CCCC[C@H](N)C(=O)O; γGlu = O=C(O)[C@H](CCC(=O)[*:2])N[*:1]; Pentadecanoyl = CCCCCCCCCCCCCCC(=O)*; Arg(Me) = CNC(=N)NCCC[C@H](N)C(=O)O; Stearoyl = CCCCCCCCCCCCCCCCCC(=O)*; Palmitoyl = CCCCCCCCCCCCCCCC(=O)*; αMeF = C[C@](N)(Cc1ccccc1)C(=O)O; αMeK = C[C@](N)(CCCCN)C(=O)O; Nle = CCCC[C@H](N)C(=O)O; AEEA = NCCOCCOCC(=O)O; Aib = CC(C)(N)C(=O)O

One may read the Emax as the greatest response seen or fitted, relative to the assay's reference. In general, EC50 refers to the midpoint of the concentration-response curve.

For the assay, the target named is T1, RXFP1 (Homo sapiens, UniProt Q9HBX9).
T1 construct: OVCAR5 cells expressing endogenous RXFP1; endogenous in cells; host or cells: OVCAR5 cells
T1 sequence (Q9HBX9 1-757): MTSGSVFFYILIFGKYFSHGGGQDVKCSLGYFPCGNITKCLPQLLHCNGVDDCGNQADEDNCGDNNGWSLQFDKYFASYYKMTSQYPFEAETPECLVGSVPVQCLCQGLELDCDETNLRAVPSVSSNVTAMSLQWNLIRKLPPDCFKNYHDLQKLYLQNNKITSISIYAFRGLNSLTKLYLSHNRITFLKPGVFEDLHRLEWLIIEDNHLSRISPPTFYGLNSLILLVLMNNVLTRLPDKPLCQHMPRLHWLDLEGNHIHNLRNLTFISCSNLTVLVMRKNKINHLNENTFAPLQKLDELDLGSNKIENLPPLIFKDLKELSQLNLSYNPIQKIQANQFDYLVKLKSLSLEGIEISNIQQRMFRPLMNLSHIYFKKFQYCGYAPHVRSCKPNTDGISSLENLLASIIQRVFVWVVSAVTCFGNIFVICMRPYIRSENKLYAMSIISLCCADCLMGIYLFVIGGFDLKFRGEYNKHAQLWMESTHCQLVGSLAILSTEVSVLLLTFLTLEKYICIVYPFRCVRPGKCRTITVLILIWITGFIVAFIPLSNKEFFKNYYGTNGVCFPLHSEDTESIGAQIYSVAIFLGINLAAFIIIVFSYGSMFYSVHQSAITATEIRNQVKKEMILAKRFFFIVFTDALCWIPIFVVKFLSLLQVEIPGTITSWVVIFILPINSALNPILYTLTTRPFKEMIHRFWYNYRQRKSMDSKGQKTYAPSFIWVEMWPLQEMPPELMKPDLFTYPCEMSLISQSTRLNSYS
Briefly: OVCAR5 cAMP assay (HTRF), RXFP1 agonist activity. The format is cell-based. The note with it: for Emax: OVCAR-5, maximal cAMP relative to H2-relaxin maximum (100%), read-out: EMax, OVCAR 5 cells (cAMP); for EC50: OVCAR5 cells, cAMP HTRF, read-out: EC50 (nM), OVCAR 5 cells (cAMP). Summed up:
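cAMP accumulation readout: after 1 mM IBMX for 40 min, endogenous-RXFP1 OVCAR5 cells got rising peptide concentrations without FCS, 30 min, 37° C, then lysis with HTRF cAMP reagents. Nonlinear regression gave EC50; Emax expressed relative to H2-relaxin maximum, same occasion.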
(Cyclic AMP is a second messenger, typically raised through Gs and lowered through Gi signalling.)

Take `CCCCCCCCCCCCCCCC(=O)N[C@@H](CCC(=O)NCCCC[C@H](NC(=O)CC[C@H](NC(=O)CC[C@H](NC(=O)CC[C@H](NC(=O)COCCOCCNC(=O)COCCOCCNC(=O)COCCOCCNC(=O)COCCOCCNC(=O)[C@H](CCCCNC(C)=O)NC(=O)[C@H](CCCCN)NC(=O)[C@H](CCCNC(=N)N)NC(=O)[C@](C)(CCCCN)NC(=O)[C@H](CO)NC(=O)[C@](C)(Cc1ccccc1)NC(=O)[C@@H](NC(=O)[C@H](CO)NC(=O)[C@H](CCCC)NC(=O)CNC(=O)[C@H](CCC(=O)O)NC(=O)C(C)(C)NC(=O)C(C)(C)NC(=O)[C@@H](NC(=O)[C@H](CCCCNC(C)=O)NC(=O)[C@H](C)NC(=O)[C@H](CCCNC(=N)N)NC(=O)[C@@H](NC(=O)[C@H](CCCCN)NC(=O)[C@H](CCC(=O)O)NC(=O)[C@H](CCCNC(=N)N)NC(=O)CNC(=O)[C@H](CCC(=O)O)NC(=O)[C@H](CC(C)C)NC(C)=O)C(C)C)[C@@H](C)CC)[C@@H](C)O)C(=O)O)C(=O)O)C(=O)O)C(N)=O)C(=O)O` [compound 152] (Ac-LEGREKVRAK(Ac)I[Aib][Aib]EG[Nle]ST[αMeF]S[αMeK]RKK(Ac)[AEEA][AEEA][AEEA][AEEA][γGlu][γGlu][γGlu]K([γGlu-Palmitoyl])-NH2): the Emax was determined as 91%. As to `CCCCCCCCCCCCCCCC(=O)N[C@@H](CCC(=O)N[C@@H](CCC(=O)N[C@@H](CCC(=O)N[C@@H](CCC(=O)NCCOCCOCC(=O)NCCOCCOCC(=O)NCCOCCOCC(=O)NCCOCCOCC(=O)NCCCC[C@H](NC(=O)[C@H](CCCCNC(C)=O)NC(=O)[C@H](C)NC(=O)[C@H](CCCNC(=N)N)NC(=O)[C@](C)(CCCCN)NC(=O)[C@H](CO)NC(=O)[C@H](Cc1ccccc1)NC(=O)[C@@H](NC(=O)[C@H](CO)NC(=O)[C@H](CCC(N)=O)NC(=O)CNC(=O)[C@H](CCC(=O)O)NC(=O)C(C)(C)NC(=O)C(C)(C)NC(=O)[C@@H](NC(=O)[C@H](CCCCNC(C)=O)NC(=O)[C@H](C)NC(=O)[C@H](CCCNC(=N)N)NC(=O)[C@@H](NC(=O)[C@H](CCCCN)NC(=O)[C@H](CCC(=O)O)NC(=O)[C@H](CCCNC(=N)N)NC(=O)CNC(=O)[C@H](CCC(=O)O)NC(=O)[C@H](CC(C)C)NC(C)=O)C(C)C)[C@@H](C)CC)[C@@H](C)O)C(N)=O)C(=O)O)C(=O)O)C(=O)O)C(=O)O` [compound 191] (Ac-LEGREKVRAK(Ac)I[Aib][Aib]EGQSTFS[αMeK]RAK(Ac)K([AEEA-AEEA-AEEA-AEEA-γGlu-γGlu-γGlu-γGlu-Palmitoyl])-NH2), the concentration giving a half-maximal response (EC50) is 0.17 nM and the Emax came to 93%.

In the case of `CCCCCCCCCCCCCCCCCC(=O)N[C@@H](CCC(=O)NCCOCCOCC(=O)NCCOCCOCC(=O)N[C@@H](CCC(=O)N[C@@H](CCC(=O)NCCCC[C@H](NC(=O)[C@H](CCCCN)NC(=O)[C@H](CCCCN)NC(=O)[C@H](CCCNC(=N)N)NC(=O)C(C)(C)NC(=O)[C@H](CO)NC(=O)[C@H](Cc1c[nH]c2ccccc12)NC(=O)[C@@H](NC(=O)[C@H](CO)NC(=O)[C@H](CCCC)NC(=O)CNC(=O)[C@H](CCC(=O)O)NC(=O)C(C)(C)NC(=O)C(C)(C)NC(=O)[C@@H](NC(=O)[C@H](CCC(N)=O)NC(=O)[C@H](C)NC(=O)[C@H](CCCNC(=N)N)NC(=O)[C@@H](NC(=O)[C@H](CCCCN)NC(=O)[C@H](CCC(=O)O)NC(=O)[C@H](CCCNC(=N)N)NC(=O)CNC(=O)[C@H](CCC(=O)O)NC(=O)[C@H](CC(C)C)NC(C)=O)C(C)C)[C@@H](C)CC)[C@@H](C)O)C(N)=O)C(=O)O)C(=O)O)C(=O)O` [compound 105] (Ac-LEGREKVRAQI[Aib][Aib]EG[Nle]STWS[Aib]RKKK([γGlu-γGlu-AEEA-AEEA-γGlu-Stearoyl])-NH2), the EC50 turned out to be 0.03 nM and the Emax worked out at 88%. With `CCCCCCCCCCCCCCCCCC(=O)N[C@@H](CCC(=O)N[C@@H](CCC(=O)N[C@@H](CCC(=O)NCCOCCOCC(=O)NCCOCCOCC(=O)NCCCC[C@H](NC(=O)[C@H](CCCCN)NC(=O)[C@H](CCCCNC(C)=O)NC(=O)[C@H](CCCNC(=N)N)NC(=O)C(C)(C)NC(=O)[C@H](CO)NC(=O)[C@H](Cc1c[nH]c2ccccc12)NC(=O)[C@@H](NC(=O)[C@H](CO)NC(=O)[C@H](CCCC)NC(=O)CNC(=O)[C@H](CCC(=O)O)NC(=O)C(C)(C)NC(=O)C(C)(C)NC(=O)[C@@H](NC(=O)[C@H](CCCCNC(C)=O)NC(=O)[C@H](C)NC(=O)[C@H](CCCNC(=N)N)NC(=O)[C@@H](NC(=O)[C@H](CCCCN)NC(=O)[C@H](CCC(=O)O)NC(=O)[C@H](CCCNC(=N)N)NC(=O)CNC(=O)[C@H](CCC(=O)O)NC(=O)[C@H](CC(C)C)NC(C)=O)C(C)C)[C@@H](C)CC)[C@@H](C)O)C(N)=O)C(=O)O)C(=O)O)C(=O)O` [compound 72] (Ac-LEGREKVRAK(Ac)I[Aib][Aib]EG[Nle]STWS[Aib]RK(Ac)KK([AEEA-AEEA-γGlu-γGlu-γGlu-Stearoyl])-NH2), the EC50 is 0.17 nM and the maximal effect (Emax) amounted to 93%.

Consider `CCCCCCCCCCCCCCCC(=O)N[C@@H](CCC(=O)N[C@@H](CCC(=O)N[C@@H](CCC(=O)N[C@@H](CCC(=O)NCCOCCOCC(=O)NCCOCCOCC(=O)NCCOCCOCC(=O)NCCOCCOCC(=O)NCCCC[C@H](NC(=O)[C@H](CCCCNC(C)=O)NC(=O)[C@H](CCCC[N+](C)(C)C)NC(=O)[C@H](CCCNC(=N)NC)NC(=O)[C@](C)(CCCCN)NC(=O)[C@H](CO)NC(=O)[C@H](Cc1c[nH]c2ccccc12)NC(=O)[C@@H](NC(=O)[C@H](CO)NC(=O)[C@H](CCCC)NC(=O)CNC(=O)[C@H](CCC(=O)O)NC(=O)C(C)(C)NC(=O)C(C)(C)NC(=O)[C@@H](NC(=O)[C@H](CCCCNC(C)=O)NC(=O)[C@H](C)NC(=O)[C@H](CCCNC(=N)N)NC(=O)[C@@H](NC(=O)[C@H](CCCCN)NC(=O)[C@H](CCC(=O)O)NC(=O)[C@H](CCCNC(=N)N)NC(=O)CNC(=O)[C@H](CCC(=O)O)NC(=O)[C@H](CC(C)C)NC(C)=O)C(C)C)[C@@H](C)CC)[C@@H](C)O)C(N)=O)C(=O)O)C(=O)O)C(=O)O)C(=O)O` [compound 141] (Ac-LEGREKVRAK(Ac)I[Aib][Aib]EG[Nle]STWS[αMeK][Arg(Me)][Lys(Me3)]K(Ac)K([AEEA-AEEA-AEEA-AEEA-γGlu-γGlu-γGlu-γGlu-Palmitoyl])-NH2), for which the EC50 worked out at 0.16 nM and the Emax came out at 87%. Turning to `CCCCCCCCCCCCCCCC(=O)N[C@@H](CCC(=O)N[C@@H](CCC(=O)N[C@@H](CCC(=O)NCCCC[C@H](NC(=O)COCCOCCNC(=O)COCCOCCNC(=O)COCCOCCNC(=O)[C@H](CCCCNC(C)=O)NC(=O)[C@H](CCCCN)NC(=O)[C@H](CCCNC(=N)N)NC(=O)C(C)(C)NC(=O)[C@H](CO)NC(=O)[C@H](Cc1ccc(O)cc1)NC(=O)[C@@H](NC(=O)[C@H](CO)NC(=O)[C@H](CCC(N)=O)NC(=O)CNC(=O)[C@H](CCC(=O)O)NC(=O)C(C)(C)NC(=O)C(C)(C)NC(=O)[C@@H](NC(=O)[C@H](CCCCNC(C)=O)NC(=O)[C@H](C)NC(=O)[C@H](CCCNC(=N)N)NC(=O)[C@@H](NC(=O)[C@H](CCCCN)NC(=O)[C@H](CCC(=O)O)NC(=O)[C@H](CCCNC(=N)N)NC(=O)CNC(=O)[C@H](CCC(=O)O)NC(=O)[C@H](CC(C)C)NC(C)=O)C(C)C)[C@@H](C)CC)[C@@H](C)O)C(N)=O)C(=O)O)C(=O)O)C(=O)O` [compound 179] (Ac-LEGREKVRAK(Ac)I[Aib][Aib]EGQSTYS[Aib]RKK(Ac)[AEEA][AEEA][AEEA]K([γGlu-γGlu-γGlu-Palmitoyl])-NH2), the Emax is 80%. In the case of `CCCCCCCCCCCCCCC(=O)N[C@@H](CCC(=O)N[C@@H](CCC(=O)NCCCC[C@H](NC(=O)CC[C@H](NC(=O)CC[C@H](NC(=O)COCCOCCNC(=O)COCCOCCNC(=O)COCCOCCNC(=O)COCCOCCNC(=O)[C@H](CCCCNC(C)=O)NC(=O)[C@H](C)NC(=O)[C@H](CCCNC(=N)N)NC(=O)[C@](C)(CCCCN)NC(=O)[C@H](CO)NC(=O)[C@H](Cc1ccccc1)NC(=O)[C@@H](NC(=O)[C@H](CO)NC(=O)[C@H](CCC(N)=O)NC(=O)CNC(=O)[C@H](CCC(=O)O)NC(=O)C(C)(C)NC(=O)C(C)(C)NC(=O)[C@@H](NC(=O)[C@H](CCCCNC(C)=O)NC(=O)[C@H](C)NC(=O)[C@H](CCCNC(=N)N)NC(=O)[C@@H](NC(=O)[C@H](CCCCN)NC(=O)[C@H](CCC(=O)O)NC(=O)[C@H](CCCNC(=N)N)NC(=O)CNC(=O)[C@H](CCC(=O)O)NC(=O)[C@H](CC(C)C)NC(C)=O)C(C)C)[C@@H](C)CC)[C@@H](C)O)C(=O)O)C(=O)O)C(N)=O)C(=O)O)C(=O)O` [compound 186] (Ac-LEGREKVRAK(Ac)I[Aib][Aib]EGQSTFS[αMeK]RAK(Ac)[AEEA][AEEA][AEEA][AEEA][γGlu][γGlu]K([γGlu-γGlu-Pentadecanoyl])-NH2), the 50% effective concentration (EC50) was determined as 0.18 nM and the Emax came to 100%.

Source of the values: patent publication US10988523B2, “Modified lipidated Relaxin B chain peptides and their therapeutic use” (Sanofi, priority 2018, dated 2021).
